Results as given in US10538567B2, “Compounds as peptidic trigonal GLP1/glucagon/GIP receptor agonists” (priority 2016, dated 2020).
pEC50: −log10 of the molar value. Numbered stars: 1 amine (or outer) side, 2 acyl side, 3 side chain; on linkers, the order of the positions; unused ones are H or OH. Square brackets hold non-standard residues; d marks the D form. Side chains are listed from the residue outwards. Peptide text beside a SMILES is read from it. * marks the point of attachment. γGlu = O=C(O)[C@H](CCC(=O)[*:2])N[*:1]; Palmitoyl = CCCCCCCCCCCCCCCC(=O)*; Aib = CC(C)(N)C(=O)O

Legend:
[1] = system: female diet-induced obese (DIO) C57BL/6 mice; experiment: Acute and chronic effects after s.c. treatment in female diet-induced obese (DIO) C57BL/6 mice; type: in vivo; conditions: for time until mice habituated to the feed intake suppression / Feed consumption estimate: DIO mice, 30 μg/kg s.c. twice-daily; for Feed consumption estimate: after dosing start; for Blood glucose profile following first treatment: fed DIO mice, day 1, 30 μg/kg s.c., 0-24 hours post-dose
Method: Female C57BL/6NHsd mice were ordered group housed from Envigo RMS Inc., shipped group housed and remained group housed with shipped cage mates in shoebox caging with wood chip bedding until day 38 of the predose phase. At the study start mice were between 25-26 weeks old.
Mice were housed under vivarium conditions that included a 12 h light/dark cycle (light phase 04:00 AM-4:00 PM), room temperatures between 23-26° C. and a relative humidity between 30-70%. All animals had free access to water and a high fat diet (TD97366) for 16 weeks prior to pharmacological intervention (dosing phase). Feed was replaced with fresh feed weekly until and for the last time on day 38 of the predose phase. During the subsequent dosing phase, approximately 50% of the remaining feed were removed, replaced with fresh feed, and pellets were mixed evenly once per week.
On predose day 38, obese DIO mice were assigned to treatment groups (n=8) to match mean body masses between all DIO groups. An age-matched group with ad libitum access to a rodent maintenance diet (Teklad Global Diets Rodent 2014, pelleted) was included in the study as a lean control group. In the predosing phase from day 32 through 38, all study animals were treated with vehicle (Phosphate Buffered Saline, PBS, Gibco, without CaCl2 and MgCl2) once daily (s.c. approximately 0.2 mL/mouse).
On day 37 of the predose phase, the test article was diluted with PBS to a concentration of 100 μg/mL and aliquots of this stock solution were stored at approximately ≤−60° C. Stock aliquots were thawed for weekly use and thereafter stored in a refrigerator at approximately 4° C. The injected test article solution was prepared fresh once on each dosing day by diluting stock solution with PBS to achieve the desired concentration.
Mice were treated twice daily with a s.c. injection of PBS-vehicle or the test article for 28 days. The morning dosing was initiated and completed between 06:00 and 07:30 AM and the afternoon dosing between 2:00 and 3:30 PM. On day 28 of the dosing phase only the morning dose was administered. The applied volume was 5 ml/kg and the dose was adjusted to the most recent body mass recording of each individual.
Animals had unlimited access to water and feed during the experiment. On day 1 of the dosing phase approximately 5 μL of blood were collected via tail clips at hour 0 prior to the first s.c. dose of PBS-vehicle or test article and 1, 2, 3, 4, 6, and 24 hours post-dose in non-anesthetized animals. The 24 hour blood collection was performed prior to dosing on day 2. Between the 6 and 24 hour blood sample the afternoon dose was administered. Glucose measurements were performed in whole blood and in duplicate or triplicate using Aviva glucometers.
Body mass was measured daily approximately between 06:00-07:30 AM from day 32 through 38 of the predosing phase and throughout the 28 days of the dosing phase. During the dosing phase mice were treated twice daily with either a s.c. injection of PBS-vehicle or test article.
To determine whole body fat mass Quantitative Nuclear Magnetic Resonance (QNMR) measurements were performed on predosing day 37 and on day 26 of the dosing phase. During the dosing phase mice were treated twice daily with either a s.c. injection of PBS-vehicle or test article.
Feed consumption was based on the daily assessment of the feeder weights of each cage between 06:00-07:30 AM. Each cage housed four mice and feed consumption was calculated throughout the 28 days of the dosing phase. During the dosing phase mice were treated twice daily with either a s.c. injection of PBS-vehicle or test article.
On day 28 blood was collected prior to any other inlife activities for determination of plasma insulin concentrations. Then the morning dose was administered and necropsy was performed 4 hours post-dose. For this purpose animals were anesthetized with isoflurane and blood was collected by orbital bleeding. […]

[2] = biological target: T1, human GLP-1 receptor (Homo sapiens, UniProt P43220); experiment: cAMP response (HTRF) of HEK-293 cells stably expressing human GLP-1 receptor; type: cell-based; conditions: Table 8; read-out: EC50 hGLP-1R
T1 construct: expressed in transfected cells; host or cells: HEK-293
T1 sequence (P43220 24-463): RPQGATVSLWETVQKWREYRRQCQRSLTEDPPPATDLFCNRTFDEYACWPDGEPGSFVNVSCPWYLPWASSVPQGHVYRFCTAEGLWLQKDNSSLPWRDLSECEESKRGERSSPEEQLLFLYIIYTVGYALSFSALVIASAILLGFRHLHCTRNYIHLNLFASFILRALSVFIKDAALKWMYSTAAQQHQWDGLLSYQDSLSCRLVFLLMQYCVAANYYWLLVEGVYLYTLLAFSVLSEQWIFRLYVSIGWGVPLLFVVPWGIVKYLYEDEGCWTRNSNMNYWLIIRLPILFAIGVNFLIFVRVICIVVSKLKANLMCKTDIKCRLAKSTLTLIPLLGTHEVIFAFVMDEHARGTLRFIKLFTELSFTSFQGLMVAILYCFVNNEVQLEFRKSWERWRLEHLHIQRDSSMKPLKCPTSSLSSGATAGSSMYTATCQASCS
Method: cAMP content of cells was determined using a kit from Cisbio Corp. (cat. no. 62AM4PEJ) based on HTRF (Homogenous Time Resolved Fluorescence). For preparation, cells were split into T175 culture flasks and grown overnight to near confluency in medium (DMEM/10% FBS). Medium was then removed and cells washed with PBS lacking calcium and magnesium, followed by proteinase treatment with accutase (Sigma-Aldrich cat. no. A6964). Detached cells were washed and resuspended in assay buffer (1×HBSS; 20 mM HEPES, 0.1% BSA, 2 mM IBMX) and cellular density determined. They were then diluted to 400000 cells/ml and 25 μl-aliquots dispensed into the wells of 96-well plates. For measurement, 25 μl of test compound in assay buffer was added to the wells, followed by incubation for 30 minutes at room temperature.
Potencies of peptidic compounds at the GLP-1, glucagon and GIP receptors were determined by exposing cells expressing human glucagon receptor (hGlucagon R), human GIP receptor (hGIP-R) or human GLP-1 receptor (hGLP-1 R) to the listed compounds at increasing concentrations and measuring the formed cAMP as described in Methods.

SMILES | time until mice habituated to the feed intake suppression [1] | Feed consumption estimate [1] | Blood glucose profile following first treatment [1] | pEC50 [2]
CCCCCCCCCCCCCCCC(=O)N[C@@H](CCC(=O)N[C@@H](CCC(=O)NCCCC[C@H](NC(=O)[C@H](CC(C)C)NC(=O)[C@H](CCCCN)NC(=O)[C@H](CO)NC(=O)[C@H](CC(C)C)NC(=O)[C@H](CC(=O)O)NC(=O)[C@H](CO)NC(=O)[C@@H](NC(=O)[C@H](Cc1ccccc1)NC(=O)[C@@H](NC(=O)CNC(=O)[C@H](Cc1c[nH]cn1)NC(=O)C(C)(C)NC(=O)[C@@H](N)Cc1c[nH]cn1)[C@@H](C)O)[C@@H](C)O)C(=O)N[C@@H](CCC(=O)O)C(=O)N[C@@H](CCC(=O)O)C(=O)N[C@@H](CCC(N)=O)C(=O)N[C@@H](CCCNC(=N)N)C(=O)N[C@@H](CCC(N)=O)C(=O)N[C@@H](CCCCN)C(=O)N[C@@H](CCC(=O)O)C(=O)N[C@@H](Cc1ccccc1)C(=O)N[C@H](C(=O)N[C@@H](CCC(=O)O)C(=O)N[C@@H](Cc1c[nH]c2ccccc12)C(=O)N[C@@H](CC(C)C)C(=O)N[C@@H](CCCCN)C(=O)N[C@@H](C)C(=O)NCC(=O)NCC(=O)N[C@@H](Cc1c[nH]cn1)C(=O)N1CCC[C@H]1C(=O)N[C@@H](CO)C(=O)NC(C)(C)C(=O)N[C@@H](CCCCN)C(=O)N1CCC[C@H]1C(=O)N1CCC[C@H]1C(=O)N1CCC[C@H]1C(=O)N[C@@H](CCCCN)C(N)=O)[C@@H](C)CC)C(=O)O)C(=O)O [SEQ ID NO: 6, H-Aib-H-G-T-F-T-S-D-L-S-K-L-K[gGlu-gGlu-Palm]-E-E-Q-R-Q-K-E-F-I-E-W-L-K-A-G-G-H-P-S-Aib-K-P-P-P-K-NH2] | approximately ten | suppressed feed intake | pronounced decrease in blood glucose concentrations over 24 hours | 11.85
CCCCCCCCCCCCCCCC(=O)N[C@@H](CCC(=O)N[C@@H](CCC(=O)NCCCC[C@H](NC(=O)[C@H](CC(C)C)NC(=O)[C@H](CCCCN)NC(=O)[C@H](CO)NC(=O)[C@H](CC(C)C)NC(=O)[C@H](CC(=O)O)NC(=O)[C@H](CO)NC(=O)[C@@H](NC(=O)[C@H](Cc1ccccc1)NC(=O)[C@@H](NC(=O)CNC(=O)[C@H](Cc1c[nH]cn1)NC(=O)C(C)(C)NC(=O)[C@@H](N)Cc1c[nH]cn1)[C@@H](C)O)[C@@H](C)O)C(=O)N[C@@H](CCC(=O)O)C(=O)N[C@@H](CCC(=O)O)C(=O)N[C@@H](CCC(N)=O)C(=O)N[C@@H](CCCNC(=N)N)C(=O)N[C@@H](CCC(N)=O)C(=O)NC(C)(C)C(=O)N[C@@H](CCC(=O)O)C(=O)N[C@@H](Cc1ccccc1)C(=O)N[C@H](C(=O)N[C@@H](CCC(=O)O)C(=O)N[C@@H](Cc1c[nH]c2ccccc12)C(=O)N[C@@H](CC(C)C)C(=O)N[C@@H](CCCCN)C(=O)N[C@@H](C)C(=O)N[C@H](C)C(=O)NCC(=O)N1CCC[C@H]1C(=O)N1CCC[C@H]1C(=O)N[C@@H](CO)C(=O)NC(C)(C)C(=O)N[C@@H](CCCCN)C(=O)N1CCC[C@H]1C(=O)N1CCC[C@H]1C(=O)N1CCC[C@H]1C(=O)N[C@@H](CCCCN)C(N)=O)[C@@H](C)CC)C(=O)O)C(=O)O [SEQ ID NO: 11, H-Aib-H-G-T-F-T-S-D-L-S-K-L-K[gGlu-gGlu-Palm]-E-E-Q-R-Q-Aib-E-F-I-E-W-L-K-A-dAla-G-P-P-S-Aib-K-P-P-P-K-NH2] (H-H[Aib]HGTFTSDLSKLK([γGlu-γGlu-Palmitoyl])EEQRQ[Aib]EFIEWLKA[dA]GPPS[Aib]KPPPK-NH2) | approximately 15 days | suppressed feed intake | pronounced decrease in blood glucose concentrations that persisted over 24 hours | –
